Data published in ChEMBL document CHEMBL5108044, “Discovery of a Novel Potent STAT3 Inhibitor HP590 with Dual p-Tyr705/Ser727 Inhibitory Activity for Gastric Cancer Treatment” (J Med Chem, 2022).
The source made the active and inactive calls. The rule behind the calls is not given here.

Columns and labels:
AGS [1] = experiment: Induction of apoptosis in human AGS cells assessed as early apoptic cells 5 nM incubated for 48 hrs by FITC-annexin V/propidium iodide staining based flow cytometry (reference value: 0.55%); format: functional
MKN-45 [2] = experiment: In vivo inhibition of STAT3 in human MKN-45 cells xenografted in BALB/c nude mouse assessed as reduction in c-myc gene expression at 25 to 50 mg/kg, po qd administered for 5 weeks by Western blot analysis; format: functional, organism-based; settings: dose 25-50 mg/kg
MKN-45 [3] = experiment: Induction of apoptosis in human MKN-45 cells assessed as viable cells at 5 nM incubated for 48 hrs by FITC-annexin V/propidium iodide staining based flow cytometry (reference value: 68%); format: functional; settings: read-out: Activity
[4] = target: T1, Signal transducer and activator of transcription 3 (Homo sapiens, UniProt P40763); experiment: Inhibition of STAT3 in human MKN-45 cells assessed as downregulation of c-Myc expression up to 40 nM by western blot analysis; format: cell-based; settings: time <= 24.0 hrs, DDE = dose-dependent effect
MGC-803 [5] = experiment: Antiproliferative activity against human MGC-803 cells assessed as reduction in cell viability incubated for 72 hrs by MTS assay; format: functional, cell-based; settings: MGC-803, 72 h
[6] = target: T1, Signal transducer and activator of transcription 3; experiment: Inhibition of STAT3 phosphorylation at Ser727 residue in human MKN-45 cells upto 40 nM incubated upto 24 hrs by Western blotting analysis; format: cell-based
[7] = target: T1, Signal transducer and activator of transcription 3; experiment: Inhibition of STAT3 in human MKN-45 cells assessed as downregulation of c-Myc expression incubated up to 24 hrs by western blot analysis; format: cell-based; settings: dose <= 40.0 nM, DDE = dose-dependent effect
[8] = target: T1, Signal transducer and activator of transcription 3; experiment: Inhibition of IL-6 induced STAT3 phosphorylation at Tyr705 residue in human MKN-45 cells at 40 nM preincubated for 24 hrs followed by IL-6 stimulation and measured after 30 min by Western blotting analysis; format: cell-based; settings: time 24.5 hrs
[9] = Cmax in ICR mouse plasma at 10 mg/kg, po measured up to 24 hrs by LC-MS/MS analysis; format: ADME, organism-based; design: dose 10 mg/kg, time < 24 hrs, route po
MKN-45 [10] = experiment: Antiproliferative activity against human MKN-45 cells assessed as reduction in cell viability incubated for 72 hrs by MTS assay; format: functional, cell-based; settings: MKN-45, 72 h
[11] = AUC (0 to t) in ICR mouse plasma at 10 mg/kg, po measured up to 24 hrs by LC-MS/MS analysis; format: ADME, organism-based; design: time < 24 hrs, dose 10 mg/kg, route po
AGS [12] = experiment: Inhibition of colony formation in human AGS cells assessed as reduction in number of colonies incubated for 5 to 7 days by crystal violet staining based assay; format: functional, cell-based; settings: dose <= 20.0 nM, time 5-7 day, DDE = dose-dependent effect
[13] = target: Epidermal growth factor receptor (Homo sapiens, UniProt P00533); experiment: Inhibition of EGFR (unknown origin)
[14] = target: T1, Signal transducer and activator of transcription 3; experiment: Inhibition of STAT3 phosphorylation at Ser727 residue in human AGS cells upto 40 nM incubated upto 24 hrs by Western blotting analysis; format: cell-based
[15] = Volume of distribution at steady state in ICR mouse plasma at 1 mg/kg, iv measured up to 24 hrs by LC-MS/MS analysis; format: ADME, organism-based; settings: read-out: Vdss
[16] = Oral bioavailability in ICR mouse plasma at 10 mg/kg measured up to 24 hrs by LC-MS/MS analysis; format: ADME, organism-based
[17] = target: T1, Signal transducer and activator of transcription 3; experiment: Inhibition of STAT3 in human MKN-45 cells assessed as downregulation of Bcl2 expression at 10 to 40 nM incubated for 24 hrs by RT-PCR analysis; format: cell-based; settings: dose 10-40 nM
[18] = target: T1, Signal transducer and activator of transcription 3; experiment: Inhibition of STAT3 phosphorylation at Tyr705 residue in human MKN-45 cells upto 40 nM incubated upto 24 hrs by Western blotting analysis; format: cell-based
AGS [19] = experiment: Induction of apoptosis in human AGS cells assessed as necrotic cells 20 nM incubated for 48 hrs by FITC-annexin V/propidium iodide staining based flow cytometry (reference value: 2.70%); format: functional
[20] = target: T1, Signal transducer and activator of transcription 3; experiment: Inhibition of STAT3 in human MKN-45 cells assessed as downregulation of Survivin expression at 10 to 40 nM incubated for 24 hrs by RT-PCR analysis; format: cell-based; settings: dose 10-40 nM
[21] = Toxicity in BALB/c nude mouse xenografted with human MKN-45 cells assessed as heart damage at 25 to 50 mg/kg, po qd administered for 5 weeks by H and E staining based analysis; format: organism-based; settings: in vivo, 840 h, dose 25-50 mg/kg
Cytochrome P450 2C9 = Cytochrome P450 2C9 (Homo sapiens, UniProt P11712); experiment: Inhibition of CYP2C9 in human liver microsome; format: ADME, microsomes
MKN-45 [22] = experiment: Inhibition of mitochondrial respiration in human MKN-45 cells assessed as decrease in basal oxygen consumption rate at 1 to 100 nM incubated for 1 hr by Seahorse XF24 extracellular flux analyzer; format: functional, cell-based; settings: dose 1-100 nM
AGS [23] = experiment: Induction of apoptosis in human AGS cells assessed as late apoptic cells 5 nM incubated for 48 hrs by FITC-annexin V/propidium iodide staining based flow cytometry (reference value: 9.56%); format: functional
MKN-45 [24] = experiment: In vivo inhibition of STAT3 phosphorylation at Tyr705 residue in human MKN-45 cells xenografted in BALB/c nude mouse at 25 to 50 mg/kg, po qd administered for 5 weeks by western blot analysis; format: functional, organism-based; settings: dose 25-50 mg/kg
AGS [25] = experiment: Induction of apoptosis in human AGS cells assessed as late apoptic cells 20 nM incubated for 48 hrs by FITC-annexin V/propidium iodide staining based flow cytometry (reference value: 9.56%); format: functional
MGC-803 [26] = experiment: Inhibition of colony formation in STAT3 knockdown human MGC-803 cells assessed as reduction in number of colonies incubated for 5 to 7 days by crystal violet staining based assay; format: functional, cell-based; settings: time 5-7 day
AGS [27] = experiment: Induction of apoptosis in human AGS cells assessed as early apoptic cells 10 nM incubated for 48 hrs by FITC-annexin V/propidium iodide staining based flow cytometry (reference value: 0.55%); format: functional
MKN-45 [28] = experiment: Induction of apoptosis in human MKN-45 cells assessed as viable cells at 10 nM incubated for 48 hrs by FITC-annexin V/propidium iodide staining based flow cytometry (reference value: 68%); format: functional; settings: read-out: Activity
MKN-45 [29] = experiment: Inhibition of mitochondrial respiration in STAT3 knockdown human MKN-45 cells assessed as basal oxygen consumption rate incubated for 80 mins […]; format: functional, cell-based
[30] = Toxicity in […] mouse xenografted with human MKN-45 cells assessed as heart damage at 25 to 50 mg/kg, po qd administered for 5 weeks by H and E staining based analysis; format: organism-based; settings: in vivo, 840 h, dose 25-50 mg/kg
MKN-45 [31] = experiment: In vivo inhibition of STAT3 phosphorylation at Tyr705 residue in human MKN-45 cells xenografted in BALB/c nude mouse at 25 to 50 mg/kg, po qd administered for 5 weeks by immunohistochemical analysis; format: functional, organism-based; settings: dose 25-50 mg/kg
MGC-803 [32] = experiment: Inhibition of colony formation in human MGC-803 cells assessed as reduction in number of colonies incubated for 5 to 7 days by crystal violet staining based assay; format: functional, cell-based; settings: dose <= 20.0 nM, time 5-7 day, DDE = dose-dependent effect
[33] = Toxicity in BALB/c nude mouse assessed as body weight loss at 25 to 50 mg/kg, po qd administered for 5 weeks; format: organism-based; settings: in vivo, 840 h, dose 25-50 mg/kg
[34] = Inhibition of ATP production in human MKN-45 cells incubated for 20 to 24 hrs by ATP assay kit method; format: functional, cell-based

T1 sequence (P40763 whole entry): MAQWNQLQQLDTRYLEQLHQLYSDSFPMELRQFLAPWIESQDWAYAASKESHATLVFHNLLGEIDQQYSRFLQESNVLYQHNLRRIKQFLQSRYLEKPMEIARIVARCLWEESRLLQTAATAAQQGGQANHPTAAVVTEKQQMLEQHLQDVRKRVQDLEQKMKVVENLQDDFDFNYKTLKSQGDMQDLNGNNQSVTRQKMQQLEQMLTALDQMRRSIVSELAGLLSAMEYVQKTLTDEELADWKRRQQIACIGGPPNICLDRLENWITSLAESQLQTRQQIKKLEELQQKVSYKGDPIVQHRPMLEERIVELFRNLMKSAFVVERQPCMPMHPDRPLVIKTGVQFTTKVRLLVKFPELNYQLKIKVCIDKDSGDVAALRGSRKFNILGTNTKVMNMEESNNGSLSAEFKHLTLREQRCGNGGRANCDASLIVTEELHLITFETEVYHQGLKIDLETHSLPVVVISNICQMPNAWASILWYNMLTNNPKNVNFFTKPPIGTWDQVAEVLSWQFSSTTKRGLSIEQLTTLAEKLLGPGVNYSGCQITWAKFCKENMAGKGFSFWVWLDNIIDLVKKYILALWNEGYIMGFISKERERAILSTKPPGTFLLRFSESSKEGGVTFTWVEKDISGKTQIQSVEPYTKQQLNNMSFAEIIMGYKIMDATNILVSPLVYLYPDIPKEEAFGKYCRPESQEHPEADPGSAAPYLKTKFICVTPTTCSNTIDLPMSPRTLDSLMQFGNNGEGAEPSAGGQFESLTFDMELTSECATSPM
Sequence of Cytochrome P450 2C9 (P11712 whole entry): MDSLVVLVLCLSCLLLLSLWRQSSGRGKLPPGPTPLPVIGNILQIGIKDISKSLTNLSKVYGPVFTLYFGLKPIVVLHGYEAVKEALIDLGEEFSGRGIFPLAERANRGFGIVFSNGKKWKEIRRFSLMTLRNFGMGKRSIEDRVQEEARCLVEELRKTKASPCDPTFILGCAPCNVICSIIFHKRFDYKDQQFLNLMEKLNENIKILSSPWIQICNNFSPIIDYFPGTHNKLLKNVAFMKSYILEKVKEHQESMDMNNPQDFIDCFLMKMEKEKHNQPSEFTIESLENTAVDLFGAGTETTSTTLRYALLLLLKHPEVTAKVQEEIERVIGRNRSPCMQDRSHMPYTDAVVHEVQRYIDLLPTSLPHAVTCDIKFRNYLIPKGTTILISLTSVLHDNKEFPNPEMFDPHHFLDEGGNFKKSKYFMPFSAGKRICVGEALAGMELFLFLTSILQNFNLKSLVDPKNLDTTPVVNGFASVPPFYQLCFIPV
Sequence of Epidermal growth factor receptor (P00533 whole entry): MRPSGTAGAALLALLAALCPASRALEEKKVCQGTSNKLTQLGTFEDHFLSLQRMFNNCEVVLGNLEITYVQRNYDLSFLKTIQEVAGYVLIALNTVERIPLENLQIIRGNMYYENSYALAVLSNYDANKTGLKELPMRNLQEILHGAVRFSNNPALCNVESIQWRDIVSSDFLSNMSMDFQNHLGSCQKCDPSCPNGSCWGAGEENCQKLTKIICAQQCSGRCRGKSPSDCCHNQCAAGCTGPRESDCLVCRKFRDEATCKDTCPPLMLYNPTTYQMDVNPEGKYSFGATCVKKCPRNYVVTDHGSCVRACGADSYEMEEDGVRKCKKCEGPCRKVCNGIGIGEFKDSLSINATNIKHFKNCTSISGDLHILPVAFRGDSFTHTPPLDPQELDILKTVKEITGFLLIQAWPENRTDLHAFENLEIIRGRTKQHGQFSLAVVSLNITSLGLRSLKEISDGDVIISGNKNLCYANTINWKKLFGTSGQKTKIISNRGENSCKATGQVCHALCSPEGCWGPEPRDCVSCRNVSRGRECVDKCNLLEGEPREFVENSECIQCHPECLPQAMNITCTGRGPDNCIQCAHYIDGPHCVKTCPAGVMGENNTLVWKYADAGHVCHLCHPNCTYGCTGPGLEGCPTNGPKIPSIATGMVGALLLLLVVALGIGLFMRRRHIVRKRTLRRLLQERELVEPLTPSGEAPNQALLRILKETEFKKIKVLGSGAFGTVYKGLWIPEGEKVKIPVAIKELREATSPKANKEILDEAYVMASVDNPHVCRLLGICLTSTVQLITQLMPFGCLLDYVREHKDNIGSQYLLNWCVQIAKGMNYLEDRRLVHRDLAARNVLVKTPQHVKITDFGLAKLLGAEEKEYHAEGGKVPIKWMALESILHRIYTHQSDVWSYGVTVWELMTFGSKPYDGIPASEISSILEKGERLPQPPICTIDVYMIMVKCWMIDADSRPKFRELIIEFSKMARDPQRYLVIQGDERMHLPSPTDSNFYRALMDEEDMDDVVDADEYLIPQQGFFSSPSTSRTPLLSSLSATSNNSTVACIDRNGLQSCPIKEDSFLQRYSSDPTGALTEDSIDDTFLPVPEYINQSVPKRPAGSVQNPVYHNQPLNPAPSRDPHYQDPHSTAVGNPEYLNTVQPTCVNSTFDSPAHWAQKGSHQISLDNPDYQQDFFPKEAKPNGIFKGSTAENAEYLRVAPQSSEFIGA

O=C(c1ccc(-c2noc(-c3ccc(C(F)(F)F)cc3)n2)cc1)N1CCN(Cc2ccc(OCC(F)(F)F)cc2)CC1
Activity (AGS [1]): 2.7% | inhibition (MKN-45 [2]): Active | viability at 0.005 µM (MKN-45 [3]): 69.6% | inhibition [4]: Dde | IC50 (MGC-803 [5]): 8.7 nM | inhibition [6]: 100% | inhibition [7]: Dde | inhibition [8]: Active | Cmax [9]: 529 ng/mL | IC50 (MKN-45 [10]): 9.3 nM | AUC(0-t) at 24 h [11]: 9400 ng·h/mL | inhibition (AGS [12]): Dde | IC50 [13]: > 10000 nM | inhibition [14]: 100% | Vd [15]: 6.56 L/kg | bioavailability [16]: 54.4% | inhibition [17]: Active | inhibition [18]: 100% | Activity (AGS [19]): 0.8% | inhibition [20]: Active | Activity [21]: Non-Toxic | IC50 (Cytochrome P450 2C9): 22900 nM | inhibition (MKN-45 [22]): Active | Activity (AGS [23]): 7.61% | inhibition (MKN-45 [24]): Active | Activity (AGS [25]): 27.1% | inhibition (MGC-803 [26]): Active | Activity (AGS [27]): 2.57% | viability at 0.01 µM (MKN-45 [28]): 68.5% | inhibition (MKN-45 [29]): Active | Activity [30]: Non-Toxic | inhibition (MKN-45 [31]): Active | inhibition (MGC-803 [32]): Dde | Activity [33]: Non-Toxic | IC50 [34]: 24.7 nM
